System: acute or chronic gastritis patients with one or more erosions
Assay: Clinical trial in acute or chronic gastritis patients (gastroscopy, Example 3)
Format: in vivo, human
Settings: 300 mg, 2 weeks, N=42
Method: The Cinnamomum cassia extract of the Preparation Example 1 according to the present disclosure, placebo, and active control drug were administered to acute and chronic gastritis patients to compare and evaluate the effectiveness and safety of Cinnamomum cassia extract according to the present disclosure in a searching manner and to determine an appropriate dose. Specifically, acute or chronic gastritis patients with one or more erosions identified in a gastroscopy performed within 7 days from the start date of administration of investigational medical product were divided into the following test groups and administered for 2 weeks. • Test group I (group administered with 225 mg of Cinnamomum cassia extract according to the present disclosure) • Test group II (group administered with 450 mg of Cinnamomum cassia extract according to the present disclosure) • Control group I (group administered with placebo) • Control group II (group administered with 180 mg of ethanol soft ext. (20->1) of 95% artemisia) • Control group III (group administered with 300 mg rebamipide) • (1) Effective rate on gastroscopy: The proportion of test subjects whose erosion score on gastroscopy reduced by more than 50% after 2 weeks of administration (visit 3) compared to baseline (visit 1) was calculated according to the following Equation 1, and evaluated according to the criteria in Table 3. [table] • (1) Complete cure rate on gastroscopy: The proportion of test subjects who were completely cured to normal on gastroscopy (0 erosions: erosion score 1 point) after 2 weeks of administration (visit 3) compared to baseline (visit 1) was calculated and evaluated according to the following Equation 2.

## O=C(NC(Cc1cc(=O)[nH]c2ccccc12)C(=O)O)c1ccc(Cl)cc1 (stereo not shown) [rebamipide]
  Complete cure rate on gastroscopy: 40.48%
  Effective example people (complete cure rate on gastroscopy): 17 people
  Effective example people (effective rate on gastroscopy): 20 people
  Effective rate on gastroscopy: 47.62%

— US20260256863A1, “COMPOSITION, COMPRISING CINNAMOMUM CASSIA EXTRACT HAVING INNOVATIVE CKD EXTRACTION TECHNOLOGY (ICET) TECHNOLOGY APPLIED THERETO, FOR PREVENTING, ALLEVIATING, OR TREATING GASTRITIS OR PEPTIC ULCER” (CHONG KUN DANG PHARMACEUTICAL CORP., priority 2022, published 2026)
